Reference: the NIST ThermoML archive (doi:10.1021/acs.jced.5b00156)
Numbers after ± are expanded uncertainties.

How the values were obtained:
[1] = 101.33 kPa, Liquid; for viscosity: Concentric cylinders viscometry; for mass density: vibrating tube
[2] = refractive index (Na D-line) (dimensionless); settings: 101.33 kPa, Liquid, Standard Abbe refractometry

## COC(=O)c1ccccc1C(=O)OC [dimethyl 1,2-benzenedicarboxylate]
[1]; 288.15 K
  viscosity: 23.53 ± 0.49 mPa·s
  mass density: 1196.23 ± 0.33 kg/m3
[1]; 293.15 K
  viscosity: 17.7 ± 0.37 mPa·s
  mass density: 1191.54 ± 0.33 kg/m3
[1]; 298.15 K
  viscosity: 13.93 ± 0.29 mPa·s
  mass density: 1186.87 ± 0.33 kg/m3
[1]; 303.15 K
  viscosity: 11.15 ± 0.23 mPa·s
  mass density: 1182.2 ± 0.33 kg/m3
[1]; 308.15 K
  viscosity: 9.123 ± 0.19 mPa·s
  mass density: 1177.55 ± 0.33 kg/m3
[1]; 313.15 K
  viscosity: 7.612 ± 0.16 mPa·s
  mass density: 1172.91 ± 0.32 kg/m3
[1]; 318.15 K
  viscosity: 6.453 ± 0.13 mPa·s
  mass density: 1168.28 ± 0.32 kg/m3
[1]; 323.15 K
  viscosity: 5.578 ± 0.12 mPa·s
  mass density: 1163.65 ± 0.32 kg/m3
[2]; 288.15 K
  refractive index: 1.51708 ± 0.00053
[2]; 293.15 K
  refractive index: 1.51494 ± 0.00053
[2]; 298.15 K
  refractive index: 1.51286 ± 0.00053
[2]; 303.15 K
  refractive index: 1.51083 ± 0.00053
[2]; 308.15 K
  refractive index: 1.50885 ± 0.00053
[2]; 313.15 K
  refractive index: 1.50693 ± 0.00053
[2]; 318.15 K
  refractive index: 1.50507 ± 0.00053
[2]; 323.15 K
  refractive index: 1.50303 ± 0.00053

## COC(=O)CCCCC(=O)OC [dimethyl 1,6-hexanedioate]
[1]; 288.15 K
  viscosity: 3.778 ± 0.079 mPa·s
  mass density: 1066.79 ± 0.28 kg/m3
[1]; 293.15 K
  viscosity: 3.313 ± 0.069 mPa·s
  mass density: 1061.92 ± 0.27 kg/m3
[1]; 298.15 K
  viscosity: 2.937 ± 0.062 mPa·s
  mass density: 1057.05 ± 0.27 kg/m3
[1]; 303.15 K
  viscosity: 2.629 ± 0.055 mPa·s
  mass density: 1052.18 ± 0.27 kg/m3
[1]; 308.15 K
  viscosity: 2.366 ± 0.05 mPa·s
  mass density: 1047.3 ± 0.27 kg/m3
[1]; 313.15 K
  viscosity: 2.143 ± 0.045 mPa·s
  mass density: 1042.41 ± 0.27 kg/m3
[1]; 318.15 K
  viscosity: 1.953 ± 0.041 mPa·s
  mass density: 1037.52 ± 0.26 kg/m3
[1]; 323.15 K
  viscosity: 1.794 ± 0.038 mPa·s
  mass density: 1032.62 ± 0.26 kg/m3
[2]; 288.15 K
  refractive index: 1.43082 ± 0.00053
[2]; 293.15 K
  refractive index: 1.42876 ± 0.00053
[2]; 298.15 K
  refractive index: 1.42669 ± 0.00053
[2]; 303.15 K
  refractive index: 1.42463 ± 0.00053
[2]; 308.15 K
  refractive index: 1.42255 ± 0.00053
[2]; 313.15 K
  refractive index: 1.42048 ± 0.00053
[2]; 318.15 K
  refractive index: 1.41835 ± 0.00053
[2]; 323.15 K
  refractive index: 1.41631 ± 0.00053
